Reference: PubChem BioAssay (NCI)
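In this assay, cells in 96-well plates receive the compound at five concentrations for 48 hours. Endpoints are linearly interpolated between the surrounding concentrations. At the GI50, growth is halved. TGI: total growth inhibition.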

Legend:
Assay in all cases: growth of human tumour cells (NCI), 48 h; in the data active means GI50 below about 0.43 µM; inactive means the rest
HOP-92 NSCLC = test system: HOP-92 NSCLC
SK-OV-3 ovarian = test system: SK-OV-3 ovarian
TK-10 renal = test system: TK-10 renal
SF-268 CNS = test system: SF-268 CNS
LOX IMVI melanoma = test system: LOX IMVI melanoma
U251 CNS = test system: U251 CNS
BT-549 breast = test system: BT-549 breast
COLO 205 colon = test system: COLO 205 colon
PC-3 prostate = test system: PC-3 prostate
NCI-H460 lung = test system: NCI-H460 lung
HS 578T breast = test system: HS 578T breast
RPMI-8226 leukemia = test system: RPMI-8226 leukemia
HCT-15 colon = test system: HCT-15 colon
CAKI-1 renal = test system: CAKI-1 renal
NCI-H226 lung = test system: NCI-H226 lung
DU-145 prostate = test system: DU-145 prostate
HCC-2998 colon = test system: HCC-2998 colon
KM12 colon = test system: KM12 colon
NCI-H23 lung = test system: NCI-H23 lung
MCF7 breast = test system: MCF7 breast
SF-295 CNS = test system: SF-295 CNS
HOP-62 NSCLC = test system: HOP-62 NSCLC
NCI-H522 lung = test system: NCI-H522 lung
SK-MEL-5 melanoma = test system: SK-MEL-5 melanoma
RXF 393 renal = test system: RXF 393 renal
HT29 colon = test system: HT29 colon
OVCAR-5 ovarian = test system: OVCAR-5 ovarian
A498 renal = test system: A498 renal

CCN1C(=O)N(CC)C2C1NN=C1SC(c3ccccc3)=CC(=O)N12 (stereo not given)
> 56100 nM: TGI (SK-OV-3 ovarian)
inactive: GI50 (HOP-92 NSCLC) > 36300 nM | GI50 (SK-OV-3 ovarian) 545 nM | GI50 (TK-10 renal) 53500 nM | GI50 (SF-268 CNS) 3050 nM | GI50 (LOX IMVI melanoma) 562 nM | GI50 (U251 CNS) 546 nM | GI50 (COLO 205 colon) 429 nM | GI50 (PC-3 prostate) 515 nM | GI50 (HS 578T breast) 489 nM | GI50 (RPMI-8226 leukemia) 580 nM | GI50 (NCI-H226 lung) 561 nM | GI50 (DU-145 prostate) 717 nM | GI50 (HCC-2998 colon) 1540 nM | GI50 (NCI-H23 lung) 1220 nM | GI50 (HOP-62 NSCLC) 532 nM | GI50 (SK-MEL-5 melanoma) 493 nM | GI50 (OVCAR-5 ovarian) 921 nM | GI50 (A498 renal) > 100000 nM
> 85600 nM: TGI (KM12 colon)
> 72000 nM: TGI (NCI-H226 lung)
538 nM: TGI (RXF 393 renal)
25100 nM: TGI (BT-549 breast)
772 nM: TGI (NCI-H522 lung)
active: GI50 (BT-549 breast) 330 nM | GI50 (NCI-H460 lung) 394 nM | GI50 (HCT-15 colon) 313 nM | GI50 (CAKI-1 renal) 357 nM | GI50 (KM12 colon) 344 nM | GI50 (MCF7 breast) 277 nM | GI50 (SF-295 CNS) 389 nM | GI50 (NCI-H522 lung) 228 nM | GI50 (RXF 393 renal) 198 nM | GI50 (HT29 colon) 338 nM
41800 nM: TGI (SK-MEL-5 melanoma)
> 54300 nM: TGI (RPMI-8226 leukemia)
> 28200 nM: TGI (HCC-2998 colon)
2200 nM: TGI (COLO 205 colon)
> 100000 nM: TGI (HOP-92 NSCLC) | TGI (TK-10 renal) | TGI (SF-268 CNS) | TGI (LOX IMVI melanoma) | TGI (U251 CNS) | TGI (PC-3 prostate) | TGI (HS 578T breast) | TGI (CAKI-1 renal) | TGI (DU-145 prostate) | TGI (NCI-H23 lung) | TGI (MCF7 breast) | TGI (HOP-62 NSCLC) | TGI (OVCAR-5 ovarian) | TGI (A498 renal)
> 74900 nM: TGI (HCT-15 colon)
> 24900 nM: TGI (SF-295 CNS)
> 36900 nM: TGI (NCI-H460 lung)
